#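 Assay format: 96-well plates, 48-hour exposure. The concentration for 50% growth inhibition is given as GI50.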 Activity calls are given as the source filed them. No stated cut-off is given here; in the data, active = GI50 up to about 1.1 µM and inactive = higher.
# How the values were obtained:
# Assay in all cases: NCI-60 cell line screen, 48 h
# [1] = test system: BT-549
# [2] = test system: MOLT-4
# [3] = test system: NCI-H23
# [4] = test system: HCT-116
# [5] = test system: MCF7
# [6] = test system: OVCAR-8
# [7] = test system: HOP-92
# [8] = test system: COLO 205
# [9] = test system: OVCAR-3
# [10] = test system: CCRF-CEM
# [11] = test system: SNB-19
# [12] = test system: SNB-75
# [13] = test system: SN12C
# [14] = test system: NCI-H522
# [15] = test system: TK-10
# [16] = test system: SR
# [17] = test system: T47D
# [18] = test system: RXF 393
# [19] = test system: HL-60
Structure (SMILES),GI50 [1],GI50 [2],GI50 [3],GI50 [4],GI50 [5],GI50 [6],GI50 [7],GI50 [8],GI50 [9],GI50 [10],GI50 [11],GI50 [12],GI50 [13],GI50 [14],GI50 [15],GI50 [16],GI50 [17],GI50 [18],GI50 [19]
COc1ccc(N2C(=O)C3c4[nH]c5ccc(C)cc5c4C4CCC(C(C)C)CC4C3C2=O)cc1 (centres undefined),> 100 µM (inactive),> 100 µM (inactive),> 100 µM (inactive),> 100 µM (inactive),> 100 µM (inactive),> 100 µM (inactive),> 100 µM (inactive),> 100 µM (inactive),> 100 µM (inactive),0.995 µM (active),> 100 µM (inactive),27.7 µM (inactive),> 100 µM (inactive),> 100 µM (inactive),> 100 µM (inactive),> 100 µM (inactive),> 100 µM (inactive),–,–
CC(C)(C)OC(=O)NC1CC2(C=C(Br)C(=O)C(Br)=C2)OC1=O (centres undefined),16.5 µM (inactive),0.401 µM (active),7.85 µM (inactive),3.28 µM (inactive),11.6 µM (inactive),7.14 µM (inactive),12.5 µM (inactive),3.59 µM (inactive),10.4 µM (inactive),0.165 µM (active),20.7 µM (inactive),21.5 µM (inactive),7.33 µM (inactive),1.73 µM (inactive),5.38 µM (inactive),0.955 µM (active),0.536 µM (active),3.58 µM (inactive),2.47 µM (inactive)
O=C(NCP(=O)(Oc1ccccc1)Oc1ccccc1)OCc1ccccc1,> 100 µM (inactive),> 100 µM (inactive),> 100 µM (inactive),–,> 100 µM (inactive),> 100 µM (inactive),38.7 µM (inactive),> 100 µM (inactive),55.1 µM (inactive),> 100 µM (inactive),> 100 µM (inactive),32 µM (inactive),> 100 µM (inactive),83.6 µM (inactive),> 100 µM (inactive),> 100 µM (inactive),> 100 µM (inactive),–,> 100 µM (inactive)
C=CCCCCCCCCCOC1C=CC(OC(C)=O)C(COC(C)=O)O1 (centres undefined),66.4 µM (inactive),24.5 µM (inactive),32.1 µM (inactive),53.2 µM (inactive),38.8 µM (inactive),18.1 µM (inactive),58.2 µM (inactive),51.6 µM (inactive),44.4 µM (inactive),39.1 µM (inactive),> 100 µM (inactive),–,42.8 µM (inactive),26.5 µM (inactive),44.3 µM (inactive),32.7 µM (inactive),77.3 µM (inactive),> 100 µM (inactive),24.2 µM (inactive)
CC(C)(C)N/N=C(\C(=O)Nc1ccc([N+](=O)[O-])cc1[N+](=O)[O-])c1nc2ccc([N+](=O)[O-])cc2nc1O,> 100 µM (inactive),35.2 µM (inactive),86.1 µM (inactive),68.5 µM (inactive),79.6 µM (inactive),48.5 µM (inactive),> 100 µM (inactive),24.5 µM (inactive),> 100 µM (inactive),98.9 µM (inactive),> 100 µM (inactive),> 100 µM (inactive),> 100 µM (inactive),66.7 µM (inactive),–,31.3 µM (inactive),36.3 µM (inactive),> 100 µM (inactive),47.3 µM (inactive)
CCOC(=O)C#Cc1cccc(C#CC(=O)OCC)c1,2.28 µM (inactive),–,3.66 µM (inactive),2.37 µM (inactive),5.62 µM (inactive),6.98 µM (inactive),5.87 µM (inactive),5.32 µM (inactive),6.07 µM (inactive),1.22 µM (inactive),5.71 µM (inactive),0.0248 µM (active),3.03 µM (inactive),15.8 µM (inactive),5.47 µM (inactive),0.506 µM (active),42.3 µM (inactive),5.31 µM (inactive),1.8 µM (inactive)
CC(C)(N)CO[C@H]1C[C@H]2CC[C@@]1(C)C2(C)C,23.1 µM (inactive),26.3 µM (inactive),23.7 µM (inactive),15.9 µM (inactive),19.4 µM (inactive),20.6 µM (inactive),14.2 µM (inactive),16.1 µM (inactive),49.8 µM (inactive),25.2 µM (inactive),24.8 µM (inactive),14.2 µM (inactive),39.9 µM (inactive),18.7 µM (inactive),20 µM (inactive),11.9 µM (inactive),16 µM (inactive),12.9 µM (inactive),–
Cc1c(-c2ccccc2)oc(=O)c2ccccc12,13.7 µM (inactive),11 µM (inactive),24.8 µM (inactive),24.6 µM (inactive),20.4 µM (inactive),27.1 µM (inactive),11.8 µM (inactive),16 µM (inactive),20.2 µM (inactive),18.4 µM (inactive),30.7 µM (inactive),12.4 µM (inactive),17.7 µM (inactive),13.8 µM (inactive),23.6 µM (inactive),10.3 µM (inactive),30.5 µM (inactive),16.5 µM (inactive),–
O=C1Nc2ccccc2/C1=N\c1cccc2ncccc12,> 100 µM (inactive),30 µM (inactive),32.2 µM (inactive),58.7 µM (inactive),50.5 µM (inactive),> 100 µM (inactive),42.5 µM (inactive),> 100 µM (inactive),63.7 µM (inactive),–,> 100 µM (inactive),94.8 µM (inactive),> 100 µM (inactive),28.1 µM (inactive),> 100 µM (inactive),31.6 µM (inactive),> 100 µM (inactive),> 100 µM (inactive),–
O=C(O)/C=C/C=C/c1ccc2c(c1)OCO2 [PIPERIC ACID],> 100 µM (inactive),> 100 µM (inactive),> 100 µM (inactive),> 100 µM (inactive),> 100 µM (inactive),> 100 µM (inactive),> 100 µM (inactive),> 100 µM (inactive),> 100 µM (inactive),–,> 100 µM (inactive),36.6 µM (inactive),> 100 µM (inactive),> 100 µM (inactive),> 100 µM (inactive),> 100 µM (inactive),> 100 µM (inactive),> 100 µM (inactive),> 100 µM (inactive)
COC(=O)C1=C(O)C(C(=O)OC)[C@]2(O)[C@H](C(=O)OC)[C@H]1C[C@@H](c1c(Cl)cccc1Cl)[C@H]2C(=O)OC (some centres undefined),1.88 µM (inactive),1.81 µM (inactive),2.02 µM (inactive),1.97 µM (inactive),3.24 µM (inactive),1.79 µM (inactive),2.69 µM (inactive),2.07 µM (inactive),2.77 µM (inactive),–,2.07 µM (inactive),2.23 µM (inactive),2.23 µM (inactive),–,–,1.82 µM (inactive),3.79 µM (inactive),1.75 µM (inactive),5.81 µM (inactive)
CCOC(=O)C(NC(=O)c1ccccc1)(Nc1ccc(S(=O)(=O)Nc2nc(C)cc(C)n2)cc1)C(F)(F)F (centres undefined),> 100 µM (inactive),> 100 µM (inactive),> 100 µM (inactive),> 100 µM (inactive),> 100 µM (inactive),> 100 µM (inactive),> 100 µM (inactive),> 100 µM (inactive),> 100 µM (inactive),> 100 µM (inactive),> 100 µM (inactive),> 100 µM (inactive),> 100 µM (inactive),–,> 100 µM (inactive),> 100 µM (inactive),> 100 µM (inactive),> 100 µM (inactive),> 100 µM (inactive)
CN(/N=C/C=N/N(C)C1=NCCN1)C1=NCCN1,> 100 µM (inactive),> 100 µM (inactive),> 100 µM (inactive),> 100 µM (inactive),> 100 µM (inactive),> 100 µM (inactive),> 100 µM (inactive),> 100 µM (inactive),> 100 µM (inactive),> 100 µM (inactive),> 100 µM (inactive),> 100 µM (inactive),> 100 µM (inactive),> 100 µM (inactive),> 100 µM (inactive),> 100 µM (inactive),> 100 µM (inactive),–,–
C1CSCCSCCCSC2CCCCC2SC1 (centres undefined),> 100 µM (inactive),26 µM (inactive),80.5 µM (inactive),> 100 µM (inactive),> 100 µM (inactive),> 100 µM (inactive),34.4 µM (inactive),86.3 µM (inactive),> 100 µM (inactive),> 100 µM (inactive),> 100 µM (inactive),> 100 µM (inactive),> 100 µM (inactive),> 100 µM (inactive),> 100 µM (inactive),46.5 µM (inactive),> 100 µM (inactive),–,17.3 µM (inactive)
Oc1ccc(Oc2cc3c(cc2Oc2ccc(O)cc2)-c2nc-3nc3[nH]c(nc4nc(nc5[nH]c(n2)c2cc(Oc6ccc(O)cc6)c(Oc6ccc(O)cc6)cc52)-c2cc(Oc5ccc(O)cc5)c(Oc5ccc(O)cc5)cc2-4)c2cc(Oc4ccc(O)cc4)c(Oc4ccc(O)cc4)cc32)cc1,> 100 µM (inactive),> 100 µM (inactive),> 100 µM (inactive),> 100 µM (inactive),> 100 µM (inactive),> 100 µM (inactive),> 100 µM (inactive),> 100 µM (inactive),> 100 µM (inactive),> 100 µM (inactive),> 100 µM (inactive),> 100 µM (inactive),> 100 µM (inactive),> 100 µM (inactive),> 100 µM (inactive),> 100 µM (inactive),> 100 µM (inactive),–,–

# Source: ChEMBL document CHEMBL1201862, “PubChem BioAssay data set” (2004)
